In ChEMBL document CHEMBL3351765, “Recent progress in sodium channel modulators for pain” (Bioorg Med Chem Lett, 2014):
Values belong to the molecule of their own block, whether it stands above or below them.

Columns and labels:
[1] = target: T1, Sodium channel protein type 9 subunit alpha (Homo sapiens, UniProt Q15858); experiment: Inhibition of Nav1.7 (unknown origin)
[2] = target: T1, Sodium channel protein type 9 subunit alpha; experiment: Inhibition of human Nav1.7 expressed in HEK293 cells by FLIPR method; type: cell-based
[3] = target: T1, Sodium channel protein type 9 subunit alpha; experiment: Inhibition of human Nav1.7 expressed in HEK293 cells by electrophysiology method; type: cell-based
[4] = target: T1, Sodium channel protein type 9 subunit alpha; experiment: Inhibition of Nav1.7 (unknown origin) expressed in HEK293 cells by PatchXpress method; type: cell-based
[5] = target: T2, Sodium channel protein type 5 subunit alpha (Homo sapiens, UniProt Q14524); experiment: Inhibition of Nav1.5 (unknown origin) expressed in HEK293 cells by IonWorks patch-clamp method; type: cell-based
[6] = target: T1, Sodium channel protein type 9 subunit alpha; experiment: Inhibition of human Nav1.7 expressed in HEK293 cells […] by QPatch method; type: cell-based
[7] = target: T1, Sodium channel protein type 9 subunit alpha; experiment: Inhibition of human Nav1.7 expressed in HEK cells by patch-clamp method; type: cell-based, HEK293
[8] = target: T1, Sodium channel protein type 9 subunit alpha; experiment: Inhibition of human Nav1.7 expressed in HEK cells by whole-cell patch-clamp technique; type: cell-based, HEK293
[9] = target: T2, Sodium channel protein type 5 subunit alpha; experiment: Inhibition of Nav1.5 (unknown origin)
[10] = test system: HEK293; experiment: Selectivity ratio of IC50 for human Nav1.5 to IC50 for human Nav1.7 expressed in HEK293 cells; type: cell-based

T2 sequence (Q14524 whole entry): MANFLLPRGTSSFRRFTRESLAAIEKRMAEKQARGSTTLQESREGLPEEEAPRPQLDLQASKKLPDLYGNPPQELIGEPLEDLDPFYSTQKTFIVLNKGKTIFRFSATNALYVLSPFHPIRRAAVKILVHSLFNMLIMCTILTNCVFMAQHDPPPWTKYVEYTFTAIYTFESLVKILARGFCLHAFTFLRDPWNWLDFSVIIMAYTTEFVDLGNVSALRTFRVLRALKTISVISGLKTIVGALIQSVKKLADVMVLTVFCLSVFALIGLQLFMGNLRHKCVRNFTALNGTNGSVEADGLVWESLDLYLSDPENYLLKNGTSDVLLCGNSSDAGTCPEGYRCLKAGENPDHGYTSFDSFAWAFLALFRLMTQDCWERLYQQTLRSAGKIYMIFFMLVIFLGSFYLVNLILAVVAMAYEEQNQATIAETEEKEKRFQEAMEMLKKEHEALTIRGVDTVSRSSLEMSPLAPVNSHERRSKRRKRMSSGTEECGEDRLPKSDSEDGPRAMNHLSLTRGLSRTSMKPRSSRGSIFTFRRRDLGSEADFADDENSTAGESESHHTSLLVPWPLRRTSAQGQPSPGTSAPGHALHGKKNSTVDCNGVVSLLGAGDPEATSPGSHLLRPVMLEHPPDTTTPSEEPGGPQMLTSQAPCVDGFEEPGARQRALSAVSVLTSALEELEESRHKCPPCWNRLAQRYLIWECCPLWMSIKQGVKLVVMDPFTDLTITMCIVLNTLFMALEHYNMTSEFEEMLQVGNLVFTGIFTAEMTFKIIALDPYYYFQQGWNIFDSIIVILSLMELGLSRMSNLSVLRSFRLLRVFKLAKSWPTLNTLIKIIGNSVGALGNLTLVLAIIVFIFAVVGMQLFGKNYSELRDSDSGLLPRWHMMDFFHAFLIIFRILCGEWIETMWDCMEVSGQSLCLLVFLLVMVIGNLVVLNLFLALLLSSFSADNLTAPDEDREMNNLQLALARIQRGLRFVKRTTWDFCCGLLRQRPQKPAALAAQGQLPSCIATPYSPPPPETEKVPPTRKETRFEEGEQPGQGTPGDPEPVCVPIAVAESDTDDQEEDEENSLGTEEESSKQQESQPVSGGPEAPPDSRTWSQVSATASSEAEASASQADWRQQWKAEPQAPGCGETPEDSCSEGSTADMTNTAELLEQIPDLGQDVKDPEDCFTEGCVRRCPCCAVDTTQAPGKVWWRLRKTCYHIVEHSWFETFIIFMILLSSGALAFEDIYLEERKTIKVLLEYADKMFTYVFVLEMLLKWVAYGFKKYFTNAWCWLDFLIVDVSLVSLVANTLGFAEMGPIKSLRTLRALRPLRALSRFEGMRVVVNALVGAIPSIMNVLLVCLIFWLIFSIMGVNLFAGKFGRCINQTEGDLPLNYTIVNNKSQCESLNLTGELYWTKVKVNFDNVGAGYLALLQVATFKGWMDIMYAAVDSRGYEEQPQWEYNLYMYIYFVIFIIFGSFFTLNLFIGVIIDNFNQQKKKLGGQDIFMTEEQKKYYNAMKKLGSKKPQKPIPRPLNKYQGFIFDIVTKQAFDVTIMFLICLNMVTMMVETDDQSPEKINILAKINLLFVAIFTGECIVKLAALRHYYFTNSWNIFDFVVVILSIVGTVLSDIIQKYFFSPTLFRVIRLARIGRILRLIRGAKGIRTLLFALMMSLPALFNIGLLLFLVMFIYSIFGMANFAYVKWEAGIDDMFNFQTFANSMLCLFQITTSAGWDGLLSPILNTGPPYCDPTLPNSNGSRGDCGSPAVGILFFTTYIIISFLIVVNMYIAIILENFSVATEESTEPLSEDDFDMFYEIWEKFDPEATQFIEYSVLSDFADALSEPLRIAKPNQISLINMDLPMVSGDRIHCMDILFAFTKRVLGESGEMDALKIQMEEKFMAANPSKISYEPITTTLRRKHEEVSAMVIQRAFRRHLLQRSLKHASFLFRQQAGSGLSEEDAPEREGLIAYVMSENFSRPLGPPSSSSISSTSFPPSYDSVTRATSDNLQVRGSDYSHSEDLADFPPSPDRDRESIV
T1 sequence (Q15858 whole entry): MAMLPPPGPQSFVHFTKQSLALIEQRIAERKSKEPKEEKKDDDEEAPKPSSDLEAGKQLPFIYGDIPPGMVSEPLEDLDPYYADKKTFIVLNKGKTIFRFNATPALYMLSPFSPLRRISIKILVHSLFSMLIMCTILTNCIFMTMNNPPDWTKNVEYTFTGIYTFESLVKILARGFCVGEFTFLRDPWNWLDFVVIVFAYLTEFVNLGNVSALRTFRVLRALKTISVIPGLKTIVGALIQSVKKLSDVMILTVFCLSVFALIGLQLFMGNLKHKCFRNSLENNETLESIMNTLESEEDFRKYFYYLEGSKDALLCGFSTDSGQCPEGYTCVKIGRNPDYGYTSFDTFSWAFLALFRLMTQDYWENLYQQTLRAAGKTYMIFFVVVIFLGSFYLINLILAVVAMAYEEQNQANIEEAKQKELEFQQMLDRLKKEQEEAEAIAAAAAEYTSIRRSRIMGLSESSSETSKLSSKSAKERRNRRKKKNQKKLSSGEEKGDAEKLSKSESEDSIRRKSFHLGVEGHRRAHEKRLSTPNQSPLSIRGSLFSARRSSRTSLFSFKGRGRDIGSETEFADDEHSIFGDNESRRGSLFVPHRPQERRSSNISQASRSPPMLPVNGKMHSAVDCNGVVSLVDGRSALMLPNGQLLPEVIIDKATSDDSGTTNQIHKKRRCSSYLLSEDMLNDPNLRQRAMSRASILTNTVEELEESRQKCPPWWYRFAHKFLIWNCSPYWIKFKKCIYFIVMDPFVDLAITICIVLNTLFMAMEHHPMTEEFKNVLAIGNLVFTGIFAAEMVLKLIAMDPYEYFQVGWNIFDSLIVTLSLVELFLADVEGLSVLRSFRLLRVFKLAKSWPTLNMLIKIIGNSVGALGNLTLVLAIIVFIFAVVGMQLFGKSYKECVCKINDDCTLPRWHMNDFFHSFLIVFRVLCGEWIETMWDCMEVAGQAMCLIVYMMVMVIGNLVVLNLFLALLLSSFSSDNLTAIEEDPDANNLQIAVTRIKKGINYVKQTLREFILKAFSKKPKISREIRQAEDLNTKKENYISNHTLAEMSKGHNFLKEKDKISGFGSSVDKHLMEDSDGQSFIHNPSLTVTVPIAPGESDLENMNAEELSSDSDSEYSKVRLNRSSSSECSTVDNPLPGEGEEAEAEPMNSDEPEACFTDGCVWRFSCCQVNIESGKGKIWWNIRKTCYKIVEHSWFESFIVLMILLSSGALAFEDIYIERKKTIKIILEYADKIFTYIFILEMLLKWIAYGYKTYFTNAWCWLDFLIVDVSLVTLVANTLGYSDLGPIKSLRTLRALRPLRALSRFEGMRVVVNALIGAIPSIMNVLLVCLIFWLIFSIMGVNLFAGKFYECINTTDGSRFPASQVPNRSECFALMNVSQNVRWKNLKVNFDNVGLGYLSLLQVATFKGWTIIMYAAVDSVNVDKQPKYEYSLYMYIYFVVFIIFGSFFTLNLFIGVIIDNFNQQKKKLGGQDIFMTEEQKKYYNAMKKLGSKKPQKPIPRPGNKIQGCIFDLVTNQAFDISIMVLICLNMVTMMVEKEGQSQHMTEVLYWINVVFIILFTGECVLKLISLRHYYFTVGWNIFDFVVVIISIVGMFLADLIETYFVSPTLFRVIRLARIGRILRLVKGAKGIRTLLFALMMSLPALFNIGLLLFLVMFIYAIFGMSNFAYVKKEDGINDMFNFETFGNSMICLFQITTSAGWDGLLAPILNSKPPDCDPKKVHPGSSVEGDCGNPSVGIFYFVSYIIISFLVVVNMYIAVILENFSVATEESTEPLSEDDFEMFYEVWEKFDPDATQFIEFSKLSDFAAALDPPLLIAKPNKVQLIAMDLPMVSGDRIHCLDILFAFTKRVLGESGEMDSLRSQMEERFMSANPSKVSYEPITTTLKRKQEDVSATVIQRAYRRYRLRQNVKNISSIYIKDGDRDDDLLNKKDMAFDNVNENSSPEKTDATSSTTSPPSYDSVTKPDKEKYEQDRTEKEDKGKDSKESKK

Structure (SMILES): O=S(=O)(Nc1ncns1)c1cc(F)c(OC[C@@H]2CNCC[C@H]2c2ccc(Cl)cc2)cc1F
IC50 [1]: 3.3 nM

Structure (SMILES): Cn1cc(-c2ccc(C(F)(F)F)cc2-c2cn[nH]c2)c2ccc(S(=O)(=O)Nc3ncns3)cc21
IC50 [4]: 38 nM | IC50 [5]: > 10000 nM

Structure (SMILES): O=S(=O)(Nc1ncns1)c1ccc2c(c1)OCCN2c1ccc(C(F)(F)F)cc1Cl
IC50 [5]: > 10000 nM

Structure (SMILES): CCCCCN1C(=O)COCC1c1cncc(-c2ccc(OC(F)(F)F)cc2)c1 (centres undefined)
IC50 [2]: 770 nM

Structure (SMILES): Nc1noc2ccc(-c3cc(Cl)ccc3Oc3cc(F)c(S(=O)(=O)Nc4ncns4)cc3F)cc12
IC50 [9]: > 1000 nM

Structure (SMILES): COc1cc(C(=O)N2CCC3(CC2)CN(CC(F)F)CC(c2ccccn2)O3)ccc1OC(C)C (centres undefined)
IC50 [7]: < 2000 nM

Structure (SMILES): O=S(=O)(Nc1ncns1)N1CCc2c(cccc2-c2ccc(C(F)(F)F)cc2C2=CCNCC2)C1
IC50 [5]: > 10000 nM

Structure (SMILES): C[C@H](c1ccccc1C1(F)CNC1)n1c(=O)oc2cc(S(=O)(=O)Nc3nccs3)c(F)cc21
Ratio IC50 [10]: 5540

Continued, values first:

IC50 [2]: 237 nM
Structure (SMILES): CN(C)c1ccc(C(=O)NC2CC23CCN(c2ccccc2)CC3)c2ccccc12 (centres undefined)

IC50 [2]: 67 nM | Ki [3]: 27 nM
Structure (SMILES): NC(=O)c1cnc(-c2ccc(Oc3cc(F)cc(Cl)c3)cc2)nc1[C@@H](O)CO

IC50 [6]: 398 nM
Structure (SMILES): Cc1ccc(OCC(C)C)c(-c2cccc([C@H]3CC[C@]4(CCN(C)C4=O)N3)c2)c1

IC50 [7]: < 2000 nM
Structure (SMILES): CCOC1CC(c2scnc2C)OC2(CCN(C(=O)c3ccc(OC(C)C)c(C)c3)CC2)C1 (centres undefined)

IC50 [8]: 130 nM
Structure (SMILES): CC1(COc2ccc(-n3nc(C4CC4)c4cc(C(=O)NS(C)(=O)=O)ccc43)cn2)CC1

IC50 [7]: < 2000 nM
Structure (SMILES): COc1cc(C(=O)N2CCC3(CC2)c2ccc(C(F)(F)F)n2CCN3C)ccc1OC(C)C

IC50 [2]: 620 nM
Structure (SMILES): Cc1oc2nc(-c3ccccc3Cl)nn2c1CNCCc1ccccc1Cl

IC50 [8]: 35 nM
Structure (SMILES): CCOc1ncccc1-c1cc(C(=O)NS(C)(=O)=O)ccc1Oc1ccc(Cl)c(C(F)(F)F)c1

IC50 [2]: 1150 nM
Structure (SMILES): O=C(NCC1CCCCN1)c1ccc(Oc2cc(C(F)(F)F)cc(C(F)(F)F)c2)cc1 (centres undefined)
